# From patent US20240285642A1, “EGFR INHIBITOR FOR THE TREATMENT OF HEAD AND NECK CANCER” (NATCO PHARMA LIMITED, priority 2021, published 2024)
# Like-named read-outs stand apart in the source and are kept apart here.
# Legend:
# [1] = system: head and neck cancer cell line; conditions: Parkinson et al 2007; cited from earlier work
# [2] = Phase I clinical study: plasma pharmacokinetics (LC-MS/MS); assay type: in vivo, human; conditions: 100 mg/day to 500 mg/day
# Procedure: Secondary: To evaluate the single and multiple dose pharmacokinetics and anti-tumour activity of NRC-2694-A. An open label, prospective, non-randomized, multicentre, dose escalation study was performed. The starting dose selected for this study was 100 mg/day and the maximum dose received was 500 mg/day. Eligible subjects were housed in a unit of the hospital for 12 days, beyond which patients who tolerated the drug were treated on out-patient (ambulatory) basis. Pharmacokinetic Evaluation: Estimation of NRC-2694 in plasma was done using a validated LC-MS/MS method. Based on the plasma concentration data, non-compartmental pharmacokinetic variables viz. area under the curve (AUC), peak plasma concentration (Cmax), time to peak plasma concentration (Tmax), and elimination rate constant, volume of distribution, half-life and clearance were calculated for single dose (on Day 1) as well as at steady state (on Day 12). Blood samples at pre-dose, 0.5, 1, 1.5, 2, 2.5, 3, 4, 6, 8, 12 and 24 hrs were collected in K2 EDTA prefilled vacutainers.
# [3] = system: recurrent and/or metastatic squamous cell carcinoma of the head and neck (R/M HNSCC); test: Phase II randomized study: efficacy (PFS, ORR, RECIST 1.1); assay type: in vivo, human
# From the text: Primary objective: The primary objective was to evaluate the efficacy of NRC-2694-A in combination with platinum plus paclitaxel regimen compared to platinum plus paclitaxel regimen alone in terms of progression free survival (PFS) in patients with recurrent and/or metastatic squamous cell carcinoma of the head and neck (R/M HNSCC).
# Secondary objectives: The secondary objective was (a) to compare the objective response rate in patients with R/M HNSCC treated with NRC-2694-A in combination with platinum plus paclitaxel regimen compared to platinum plus paclitaxel regimen alone and (b) to compare the safety and tolerability of the two regimens.
# The study was an open-label, prospective, randomized, active controlled, multicentric phase-II study of NRC-2694-A in patients with histologically/cytologically confirmed HNSCC with radiological progression (recurrence and/or metastasis).
# Patients between 18 and 65 years of age with life expectancy≥3 months having recurrent and/or metastatic disease for whom cisplatin/carboplatin plus paclitaxel regimen was planned were eligible for the study. Those who fit all the inclusion and exclusion criteria were randomized to receive either chemotherapy+NRC-2694-A (study drug arm) or chemotherapy alone (control arm). • Arm-I (study drug arm): NRC-2694-A+cisplatin/carboplatin and paclitaxel • Arm-II (control arm): cisplatin/carboplatin and paclitaxel
# During the study, 300 mg NRC-2694-A was administered once daily in the morning with or without food with 240 ml of water. The dose of cisplatin was 100 mg/m^2 of body surface area as intravenous infusion over an hour. Alternatively, the dose of carboplatin was based on the target area under the curve (AUC) equivalent to 5 mg/mL/min, as an infusion over 1 hour. The choice of platinum compound was per the investigator's discretion and was dependent on the type of platinum received during prior therapy, avoiding repetition. Paclitaxel was given at a dose of 175 mg/m^2 of body surface area as an infusion over 3 hours. • Monotherapy: After completion of 6 cycles of chemotherapy in control arm or in study drug arm, patients received 300 mg of NRC-2694-A once daily as a monotherapy.
# [4] = Phase I clinical study: safety, MTD and DLT; assay type: in vivo
# Procedure: An open label, prospective, non-randomized, multicentre, dose escalation study was performed. The starting dose selected for this study was 100 mg/day and the maximum dose received was 500 mg/day.
# Safety: Assessments were performed within 7 days before administration of study medication and subsequently on Days 12, 18, 24, 30, 45, 60, 75 and 90. However, for assessing the DLT and MTD first 30 day safety data was considered.
# [5] = system: recurrent squamous cell carcinoma of the head and neck; test: Phase I clinical study: tumour evaluation per RECIST 1.1; assay type: in vivo, human
# Procedure: A Phase I clinical study was conducted to evaluate the safety, pharmacokinetics and anti-tumour activity of NRC-2694-A (NRC-2694 dihydrochloride) in patients with recurrent squamous cell carcinoma of the head and neck.
# An open label, prospective, non-randomized, multicentre, dose escalation study was performed. The starting dose selected for this study was 100 mg/day and the maximum dose received was 500 mg/day. Eligible subjects were housed in a unit of the hospital for 12 days, beyond which patients who tolerated the drug were treated on out-patient (ambulatory) basis.
# Tumour Evaluation: Change in the size of evaluable tumour from base line was evaluated as per RECIST criteria (version 1.1).
# [6] = system: R/M HNSCC; conditions: cited from earlier work
# [7] = Stage-II monotherapy, among the 4 patients with partial response in Stage-I
compound,measurement,setting,value
"C#Cc1cccc(Nc2ncnc3cc(OC)c(OCCCN4CCOCC4)cc23)c1 [NRC-2694, (3-Ethynyl-phenyl)-[7-methoxy-6-(3-morpholin-4-yl-propoxy)-quinazolin-4-yl]-amine]",inhibition of growth of a head and neck cancer cell line grafted into athymic female mice,[1],low to moderate inhibition
"C#Cc1cccc(Nc2ncnc3cc(OC)c(OCCCN4CCOCC4)cc23)c1.Cl.Cl [NRC-2694-A, N-(3-ethynylphenyl)-7-methoxy-6-(3-morpholinopropoxy) quinazolin-4-amine dihydrochloride]",plasma concentration versus dose,[2]; Day-1 and Day-12 concentrations,dose dependent increase
same,relationship of pharmacokinetics to dose,[2]; patients,Dose proportional relationship
same,patients in whom complete response was maintained,"[3]; Stage-II monotherapy 300 mg once daily, Arm-I patients with complete response in Stage-I",2 patients
same,patients continuing to have partial response,[3]; [7],one
same,patients with progressive disease,[3]; [7],1 patients
same,patients with stable disease,[3]; [7],2 patients
same,patients continuing to have progressive disease,"[3]; Stage-II monotherapy, patient with progressive disease in Stage-I",1 patients
same,patients achieving complete response,"[3]; Stage-II monotherapy, patients from Arm-II with partial response and stable disease earlier",2 patients
same,patients continuing to have stable disease,"[3]; Stage-II monotherapy, patients with stable disease in Stage-I",Two
same,safety profile,"[4]; once daily administration, Phase I",tolerable safety profile
same,MTD (maximum tolerated dose),"[4]; oral once daily, dose escalation 100 to 500 mg/day, first 30 day safety data",400 mg/day
same,Outcome (tumour evaluation),"[5]; Subject No. 0202, Head and Neck, 120 days completed",Stable Disease
same,Outcome (tumour evaluation),"[5]; Subject No. 0207, Head and Neck, 79 days completed",Stable Disease
same,Outcome (tumour evaluation),"[5]; Subject No. 0211, Head and Neck, 120 days completed",Stable Disease
same,Outcome (tumour evaluation),"[5]; Subject No. 0212, Head and Neck, 120 days completed",Partial Response
same,Outcome (tumour evaluation),"[5]; Subject No. 0216, Head and Neck, 120 days completed",Stable Disease
same,anti-tumour activity (effect on tumour size),"[5]; patients with recurrent squamous cell carcinoma of the head and neck, oral once daily",tumour size reduction or tumour size stasis
"Pembrolizumab: approved monoclonal antibody, immunotherapy for R/M HNSCC",ORR,"[6]; Pembrolizumab alone, CPS>20 population",26%
same,ORR,[6]; combination of Pembrolizumab and platinum-based chemotherapy,36%
